Reference: PMC10051292, “Neoprzewaquinone A Inhibits Breast Cancer Cell Migration and Promotes Smooth Muscle Relaxation by Targeting PIM1 to Block ROCK2/STAT3 Pathway” (International Journal of Molecular Sciences, 2023)

Biological target: PIM1 (Homo sapiens, UniProt P11309)
Assay: ADP-Glo in vitro kinase assay; supported by CETSA western blot in MDA-MB-231 (about […] °C stabilization)
Assay type: biochemical

Chain of PIM1 (P11309 whole entry): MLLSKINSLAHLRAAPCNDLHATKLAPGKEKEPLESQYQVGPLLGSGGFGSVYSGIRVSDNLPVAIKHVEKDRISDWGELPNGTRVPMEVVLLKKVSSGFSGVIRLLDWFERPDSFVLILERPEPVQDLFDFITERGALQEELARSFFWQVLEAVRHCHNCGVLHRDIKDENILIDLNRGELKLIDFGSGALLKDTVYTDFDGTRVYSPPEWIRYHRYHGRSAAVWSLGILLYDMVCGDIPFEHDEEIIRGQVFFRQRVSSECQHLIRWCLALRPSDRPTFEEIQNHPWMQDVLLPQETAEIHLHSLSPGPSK

IC50: 560 nM
SMILES: C=C1CCCc2c(ccc3c2C(=O)C(=O)c2c(C)coc2-3)/C(C)=C/CCc2c1ccc1c2C(=O)C(=O)c2c(C)coc2-1 [NEO, Neoprzewaquinone A]
